Measurements from article PMC6576746, “Rational discovery of dual-indication multi-target PDE/Kinase inhibitor for precision anti-cancer therapy using structural systems pharmacology” (PLoS Computational Biology, 2019).

Experiments:
Experiment in all cases: biochemical
Design in all cases: DiscoverX KinomeScan competition binding assay across human kinases; per cent of control at 10 and 100 uM
EPHB4 = EPHB4 (Homo sapiens, UniProt P54760); conditions: competition binding, % of control; read-out: Percent Control (100 uM Levosimendan)
In short: (§1)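 Binding is expressed as %control, normalised between positive and negative control signals. The compound (levosimendan) was tested at 10 μM and 100 μM in the DiscoverX KinomeScan competition binding format against human kinases.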

PKAC-beta = target: T1, PKAC-beta (Homo sapiens, UniProt P22694); conditions: competition binding, % of control; read-out: Percent Control (100 uM Levosimendan)
T1 construct: gene PRKACB
In short: as §1

CSNK1G3 = CSNK1G3 (Homo sapiens, UniProt Q9Y6M4); conditions: competition binding, % of control
Sequence of CSNK1G3 (Q9Y6M4 whole entry): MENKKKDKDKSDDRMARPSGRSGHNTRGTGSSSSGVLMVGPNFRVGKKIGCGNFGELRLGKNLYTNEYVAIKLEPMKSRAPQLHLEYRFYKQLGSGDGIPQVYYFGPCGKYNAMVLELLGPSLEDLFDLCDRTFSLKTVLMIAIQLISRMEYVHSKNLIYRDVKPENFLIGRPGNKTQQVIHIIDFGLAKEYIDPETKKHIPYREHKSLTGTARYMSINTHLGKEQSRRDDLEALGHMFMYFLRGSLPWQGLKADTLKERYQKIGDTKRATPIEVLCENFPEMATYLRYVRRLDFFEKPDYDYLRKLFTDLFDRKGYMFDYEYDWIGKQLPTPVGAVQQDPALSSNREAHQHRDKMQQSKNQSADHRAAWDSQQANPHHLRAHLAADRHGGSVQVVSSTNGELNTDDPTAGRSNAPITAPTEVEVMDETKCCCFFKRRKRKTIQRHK
In short: as §1

ADCK3 = target: T2, ADCK3 (Homo sapiens, UniProt Q8NI60); conditions: competition binding, % of control; read-out: Percent Control (100 uM Levosimendan)
T2 construct: gene COQ8A
In short: as §1

ARK5 = target: T3, ARK5 (Homo sapiens, UniProt O60285); conditions: competition binding, % of control; read-out: Percent Control (100 uM Levosimendan)
T3 construct: gene NUAK1
T3 sequence (O60285 whole entry): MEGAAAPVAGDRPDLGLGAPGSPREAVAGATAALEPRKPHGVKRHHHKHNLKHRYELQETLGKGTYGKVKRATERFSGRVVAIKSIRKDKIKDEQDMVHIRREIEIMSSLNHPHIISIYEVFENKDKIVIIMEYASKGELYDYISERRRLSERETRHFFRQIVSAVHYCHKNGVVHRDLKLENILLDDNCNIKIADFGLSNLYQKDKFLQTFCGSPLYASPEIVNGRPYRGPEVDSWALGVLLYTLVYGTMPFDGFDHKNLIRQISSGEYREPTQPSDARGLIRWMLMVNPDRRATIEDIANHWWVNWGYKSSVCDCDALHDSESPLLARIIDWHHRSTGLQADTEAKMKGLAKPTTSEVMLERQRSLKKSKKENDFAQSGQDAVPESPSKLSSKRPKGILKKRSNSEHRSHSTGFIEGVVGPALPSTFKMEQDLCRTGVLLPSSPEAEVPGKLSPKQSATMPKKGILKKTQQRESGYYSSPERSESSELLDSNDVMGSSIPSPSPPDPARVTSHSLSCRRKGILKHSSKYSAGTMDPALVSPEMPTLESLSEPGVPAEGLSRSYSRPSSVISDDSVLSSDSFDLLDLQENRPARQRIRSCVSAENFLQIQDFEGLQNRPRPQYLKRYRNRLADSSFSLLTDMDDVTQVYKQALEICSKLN
In short: as §1

STK35 = STK35 (Homo sapiens, UniProt Q8TDR2); conditions: competition binding, % of control; read-out: Percent Control (100 uM Levosimendan)
Sequence of STK35 (Q8TDR2 whole entry): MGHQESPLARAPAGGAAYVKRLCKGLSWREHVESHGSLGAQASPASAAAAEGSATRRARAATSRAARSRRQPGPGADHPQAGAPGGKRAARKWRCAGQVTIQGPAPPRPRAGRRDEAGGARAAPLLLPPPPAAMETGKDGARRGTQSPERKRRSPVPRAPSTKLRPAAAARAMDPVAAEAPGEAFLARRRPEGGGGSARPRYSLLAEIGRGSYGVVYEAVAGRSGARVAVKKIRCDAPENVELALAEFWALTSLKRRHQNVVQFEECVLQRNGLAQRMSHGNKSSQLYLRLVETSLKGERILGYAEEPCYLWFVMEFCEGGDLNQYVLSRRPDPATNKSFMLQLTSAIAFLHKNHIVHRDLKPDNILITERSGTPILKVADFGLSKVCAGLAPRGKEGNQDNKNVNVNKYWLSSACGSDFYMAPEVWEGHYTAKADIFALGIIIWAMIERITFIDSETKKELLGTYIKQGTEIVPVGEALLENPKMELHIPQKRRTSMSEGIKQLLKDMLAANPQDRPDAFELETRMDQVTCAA
In short: as §1

[1] = target: T4, RSK3(Kin.Dom.2-C-terminal) (Homo sapiens, UniProt Q15349); conditions: competition binding, % of control; read-out: Percent Control (100 uM Levosimendan)
T4 construct: gene RPS6KA2; Kin.Dom.2-C-terminal
In short: as §1

AAK1 = AAK1 (Homo sapiens, UniProt Q2M2I8); conditions: competition binding, % of control
Sequence of AAK1 (Q2M2I8 whole entry): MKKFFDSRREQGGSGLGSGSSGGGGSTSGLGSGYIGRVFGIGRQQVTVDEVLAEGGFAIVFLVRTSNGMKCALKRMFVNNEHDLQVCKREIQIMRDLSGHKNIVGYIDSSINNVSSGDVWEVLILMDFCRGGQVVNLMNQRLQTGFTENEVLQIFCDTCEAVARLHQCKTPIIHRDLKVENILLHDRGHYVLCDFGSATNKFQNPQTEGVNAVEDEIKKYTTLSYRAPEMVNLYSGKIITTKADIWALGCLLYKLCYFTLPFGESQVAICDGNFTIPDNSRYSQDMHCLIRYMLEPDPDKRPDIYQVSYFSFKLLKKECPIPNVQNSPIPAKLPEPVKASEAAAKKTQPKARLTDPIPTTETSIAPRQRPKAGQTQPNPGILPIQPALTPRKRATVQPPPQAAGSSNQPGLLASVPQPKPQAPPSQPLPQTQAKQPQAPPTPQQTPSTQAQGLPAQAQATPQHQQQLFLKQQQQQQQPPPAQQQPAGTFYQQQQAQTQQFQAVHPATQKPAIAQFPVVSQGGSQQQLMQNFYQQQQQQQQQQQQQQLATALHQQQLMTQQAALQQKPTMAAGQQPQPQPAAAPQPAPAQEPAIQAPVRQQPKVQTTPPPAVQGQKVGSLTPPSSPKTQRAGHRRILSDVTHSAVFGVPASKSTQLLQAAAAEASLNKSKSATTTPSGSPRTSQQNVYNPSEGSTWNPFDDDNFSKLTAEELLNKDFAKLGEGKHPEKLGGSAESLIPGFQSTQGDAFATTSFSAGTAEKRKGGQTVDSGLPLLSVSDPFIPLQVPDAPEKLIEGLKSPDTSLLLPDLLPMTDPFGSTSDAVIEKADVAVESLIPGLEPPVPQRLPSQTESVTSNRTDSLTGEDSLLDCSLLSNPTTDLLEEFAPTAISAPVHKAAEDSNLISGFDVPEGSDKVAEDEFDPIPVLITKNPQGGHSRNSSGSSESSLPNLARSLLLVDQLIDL
In short: as §1

GRK3 = GRK3 (Homo sapiens, UniProt P35626); conditions: competition binding, % of control; read-out: Percent Control (100 uM Levosimendan)
In short: as §1

ITK = ITK (Homo sapiens, UniProt Q08881); conditions: competition binding, % of control; read-out: Percent Control (100 uM Levosimendan)
Sequence of ITK (Q08881 whole entry): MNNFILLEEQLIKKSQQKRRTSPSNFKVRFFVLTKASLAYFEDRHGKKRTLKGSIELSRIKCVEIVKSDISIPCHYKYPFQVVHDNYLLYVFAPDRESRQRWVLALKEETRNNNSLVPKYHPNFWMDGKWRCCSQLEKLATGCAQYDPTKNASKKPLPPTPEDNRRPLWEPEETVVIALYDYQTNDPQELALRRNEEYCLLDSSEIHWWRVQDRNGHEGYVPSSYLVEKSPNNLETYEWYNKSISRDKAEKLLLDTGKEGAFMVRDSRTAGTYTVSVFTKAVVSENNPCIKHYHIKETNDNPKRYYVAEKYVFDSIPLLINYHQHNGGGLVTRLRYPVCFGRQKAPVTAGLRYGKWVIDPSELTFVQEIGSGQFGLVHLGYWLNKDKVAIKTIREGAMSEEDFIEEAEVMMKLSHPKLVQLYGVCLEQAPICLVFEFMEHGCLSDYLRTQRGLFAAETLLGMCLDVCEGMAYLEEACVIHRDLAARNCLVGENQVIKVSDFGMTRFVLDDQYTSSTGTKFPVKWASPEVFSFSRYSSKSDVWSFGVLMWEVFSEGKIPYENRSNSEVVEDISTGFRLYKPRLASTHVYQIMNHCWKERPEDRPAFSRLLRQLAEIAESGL
In short: as §1

MYLK4 = target: T5, MYLK4 (Homo sapiens, UniProt Q86YV6); conditions: competition binding, % of control
T5 sequence (Q86YV6 1-388): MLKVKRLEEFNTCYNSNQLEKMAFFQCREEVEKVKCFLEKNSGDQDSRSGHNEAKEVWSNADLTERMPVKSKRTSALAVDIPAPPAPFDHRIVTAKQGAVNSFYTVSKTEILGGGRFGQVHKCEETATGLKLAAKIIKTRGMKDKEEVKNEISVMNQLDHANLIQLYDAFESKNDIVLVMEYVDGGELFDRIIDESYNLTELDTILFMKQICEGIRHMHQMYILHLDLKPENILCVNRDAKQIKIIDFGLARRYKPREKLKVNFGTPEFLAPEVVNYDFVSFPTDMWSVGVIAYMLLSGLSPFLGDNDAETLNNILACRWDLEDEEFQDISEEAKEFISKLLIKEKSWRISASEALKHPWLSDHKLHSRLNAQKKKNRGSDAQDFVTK
In short: as §1

MARK3 = MARK3 (Homo sapiens, UniProt P27448); conditions: competition binding, % of control; read-out: Percent Control (100 uM Levosimendan)
Sequence of MARK3 (P27448 whole entry): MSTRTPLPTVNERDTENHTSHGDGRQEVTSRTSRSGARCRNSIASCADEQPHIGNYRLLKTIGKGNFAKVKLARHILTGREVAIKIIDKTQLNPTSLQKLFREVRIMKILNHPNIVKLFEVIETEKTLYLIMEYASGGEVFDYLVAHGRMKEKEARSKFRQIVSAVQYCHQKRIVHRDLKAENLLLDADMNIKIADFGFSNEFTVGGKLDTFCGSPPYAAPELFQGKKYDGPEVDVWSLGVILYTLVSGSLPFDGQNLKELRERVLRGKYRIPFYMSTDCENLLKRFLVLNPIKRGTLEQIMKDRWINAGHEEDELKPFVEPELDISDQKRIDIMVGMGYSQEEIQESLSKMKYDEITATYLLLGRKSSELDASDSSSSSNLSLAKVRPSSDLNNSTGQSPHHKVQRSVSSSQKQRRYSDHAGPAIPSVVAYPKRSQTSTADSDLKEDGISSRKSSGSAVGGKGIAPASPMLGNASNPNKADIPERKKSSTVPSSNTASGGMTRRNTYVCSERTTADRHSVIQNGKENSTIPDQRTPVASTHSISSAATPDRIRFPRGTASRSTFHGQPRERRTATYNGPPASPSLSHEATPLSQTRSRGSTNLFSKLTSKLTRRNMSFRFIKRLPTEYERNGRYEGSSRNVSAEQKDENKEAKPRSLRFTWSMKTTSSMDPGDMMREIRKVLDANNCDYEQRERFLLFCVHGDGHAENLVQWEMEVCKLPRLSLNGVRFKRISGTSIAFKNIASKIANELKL
In short: as §1

PFTK1 = target: T6, PFTK1 (Homo sapiens, UniProt O94921); conditions: competition binding, % of control; read-out: Percent Control (100 uM Levosimendan)
T6 construct: gene CDK14
T6 sequence (O94921 whole entry): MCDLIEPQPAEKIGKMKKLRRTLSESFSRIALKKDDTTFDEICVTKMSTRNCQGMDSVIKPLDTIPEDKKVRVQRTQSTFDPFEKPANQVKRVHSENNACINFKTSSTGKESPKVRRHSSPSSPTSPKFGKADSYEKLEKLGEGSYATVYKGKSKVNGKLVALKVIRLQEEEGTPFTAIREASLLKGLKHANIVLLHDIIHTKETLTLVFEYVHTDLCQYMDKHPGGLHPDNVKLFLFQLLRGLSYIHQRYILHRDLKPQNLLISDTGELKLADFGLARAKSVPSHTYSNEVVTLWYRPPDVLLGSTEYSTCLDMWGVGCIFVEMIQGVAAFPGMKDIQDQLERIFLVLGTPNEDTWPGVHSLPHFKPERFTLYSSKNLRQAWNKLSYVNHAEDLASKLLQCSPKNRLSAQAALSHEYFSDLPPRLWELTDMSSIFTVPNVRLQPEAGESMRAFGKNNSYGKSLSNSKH
In short: as §1

BMPR1A = BMPR1A (Homo sapiens, UniProt P36894); conditions: competition binding, % of control; read-out: Percent Control (100 uM Levosimendan)
In short: as §1

CAMK2A = CAMK2A (Homo sapiens, UniProt Q9UQM7); conditions: competition binding, % of control; read-out: Percent Control (100 uM Levosimendan)
Sequence of CAMK2A (Q9UQM7 whole entry): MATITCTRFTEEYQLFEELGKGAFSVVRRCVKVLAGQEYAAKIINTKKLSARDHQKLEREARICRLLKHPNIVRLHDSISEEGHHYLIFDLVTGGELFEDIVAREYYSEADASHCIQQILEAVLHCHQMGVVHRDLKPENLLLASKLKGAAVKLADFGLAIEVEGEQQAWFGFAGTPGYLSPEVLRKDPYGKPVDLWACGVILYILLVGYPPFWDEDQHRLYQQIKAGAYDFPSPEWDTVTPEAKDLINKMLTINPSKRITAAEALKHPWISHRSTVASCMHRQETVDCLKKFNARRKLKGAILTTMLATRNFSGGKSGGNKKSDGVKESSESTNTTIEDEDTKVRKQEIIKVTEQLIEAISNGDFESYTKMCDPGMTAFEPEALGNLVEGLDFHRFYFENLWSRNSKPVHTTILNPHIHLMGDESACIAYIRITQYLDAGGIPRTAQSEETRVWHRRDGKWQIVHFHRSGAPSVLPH
In short: as §1

[2] = target: T7, ABL1(Q252H)-nonphosphorylated (Homo sapiens, UniProt P00519, Q252H); conditions: competition binding, % of control; read-out: Percent Control (100 uM Levosimendan)
T7 construct: nonphosphorylated
In short: as §1

[3] = read-out: Percent Control (10 uM Levosimendan)
[4] = read-out: Percent Control (100 uM Levosimendan)

Compound: C[C@@H]1CC(=O)NN=C1c1ccc(NN=C(C#N)C#N)cc1 [levosimendan]
- remaining binding at 100 µM (EPHB4): 85%
- remaining binding at 100 µM (PKAC-beta): 64%
- remaining binding at 10 µM (CSNK1G3; [3]): 83%
- remaining binding at 100 µM (CSNK1G3; [4]): 36%
- remaining binding at 100 µM (ADCK3): 57%
- remaining binding at 100 µM (ARK5): 100%
- remaining binding at 100 µM (STK35): 81%
- remaining binding at 100 µM [1]: 100%
- remaining binding at 10 µM (AAK1; [3]): 31%
- remaining binding at 100 µM (AAK1; [4]): 24%
- remaining binding at 100 µM (GRK3): 100%
- remaining binding at 100 µM (ITK): 86%
- remaining binding at 10 µM (MYLK4; [3]): 85%
- remaining binding at 100 µM (MYLK4; [4]): 24%
- remaining binding at 100 µM (MARK3): 95%
- remaining binding at 100 µM (PFTK1): 67%
- remaining binding at 100 µM (BMPR1A): 93%
- remaining binding at 100 µM (CAMK2A): 73%
- remaining binding at 100 µM [2]: 61%
